The results in this text go back to patent publication US20110034420A1, “NOVEL CRYSTALLINE FORM B OF (2R)-(3-AMINO-2-FLUOROPROPYL)PHOSPHINIC ACID” (priority 2008, published 2011).

This data set in a line: isoelectric point of the zwitterion. The format is physicochemical. The conditions noted are these: pH at which it may be crystallised. An excerpt: (2R)-(3-amino-2-fluoropropyl)phosphinic acid is a zwitterion, that may be crystallised at the isoelectric point, in this case approximately at a pH of 5.3.

Molecules are shown by their SMILES.

For the compound `NC[C@@H](F)C[PH](=O)O` [(2R)-(3-amino-2-fluoropropyl)phosphinic acid], the “isoelectric point (pH)” value is roughly 5.3 pH.
